These results are taken from paper PMC11845477, “Exploring the principles behind antibiotics with limited resistance” (Nature Communications, 2025).

Like-named read-outs stand apart in the source and are kept apart here.

In general, MIC refers to the smallest concentration in the dilution series that meets the test's criterion for growth inhibition.

For assay [1], the system named is E. coli ATCC 25922 (SEN) and E. coli NCTC13846 (MDR). In words: Frequency-of-resistance (FoR) assay, relative MIC of mutants. The class given is cell-based, Escherichia coli. The conditions noted are these: for MIC: Escherichia coli, read-out: MIC of evolved line, Escherichia coli ATCC 25922 (EC-SEN). The method, then: (§1) The susceptibility of antibiotics to resistance development was evaluated in two strains of each bacterial species: a multidrug-resistant strain and an antibiotic-sensitive strain of Escherichia coli, Klebsiella pneumoniae, Acinetobacter baumannii, and Pseudomonas aeruginosa. To explore first-step resistance, we previously used a standard protocol for spontaneous frequency-of-resistance analysis (FoR assay) at multiple concentrations of each antibiotic[10],[28],[31]–[33]. […] For all other combinations, approximately 10^10 bacterial cells were exposed to one of each antibiotic on agar plates for two days at concentrations where the given strain is susceptible. We examined resistance levels by contrasting the minimum inhibitory concentration (MICs) of the mutated strains to the original wild-type bacterial strain (i.e., relative MIC).
(§2) To estimate the frequency of spontaneous mutations that confer resistance in a microbial population, we conducted a frequency of resistance (FoR) assay following established protocols[10],[31]–[33]. […] Prior to plating, bacteria were grown overnight in MHB medium at 37 °C and 250 RPM, then centrifuged and washed in MHB. All experiments were performed in triplicate, and plates were incubated at 37 °C for 48 hours. Total colony-forming units (CFUs) were determined by plating appropriate dilutions onto antibiotic-free MHB agar. Resistance frequencies were calculated by dividing the number of resistant colonies by the initial viable cell count. From the plates with the highest antibiotic concentration, ten colonies were selected for MIC determination and whole-genome sequencing.
(§3) A robotic liquid handling system was used to automatically prepare a 11 to 16-step serial dilution in 384-well microtiter plates (Greiner). A final concentration of 5 × 10^5 bacterial cells per mL were inoculated into each well containing 60 µL MHB medium. Bacterial cultures were incubated at 37 °C with continuous shaking (Infors shaker, 900 rpm with 3 mm throw) for 18 hours (2 replicates from each). Cell growth was monitored by measuring the optical density (OD600 values, using Biotek Synergy microplate reader). MIC was defined as the antibiotic concentration of complete growth inhibition (i.e., OD600 < 0.05). Relative MIC was calculated as follows:1 relativeMIC=MICevolved/MICancestor […]
(§4) Supplementary Figure 3. Resistance levels following the frequency of resistance assay across bacterial strains. The level of resistance was measured as the fold change in relative MIC between evolved and ancestral strains. Data are grouped by bacterial strain (A. baumannii (AB), E. coli (EC), K. pneumoniae (KP), and P. aeruginosa (PA)) and categorized as either multidrug-resistant (MDR) or sensitive (SEN). Each data point represents a laboratory evolved line, and boxplots show the median, first and third quartiles, with whiskers indicating the 5th and 95th percentiles. […]
(§5) analysis was performed using two-sided Dunn’s post-hoc test with Benjamini-Hochberg correction for multiple comparisons (**/ * indicates p < 0.01/ 0.05). For detailed information on antibiotic and bacterial species, see Supplementary Table 1. For mode of action groups, refer to Table 1. Source data are provided as a Source Data file.

Assay [2] deals with A. baumannii ATCC 17978 (SEN) and A. baumannii ATCC BAA-1605 (MDR). The assay is described as above. The class given is cell-based, Acinetobacter baumannii. The note with it: for MIC: Acinetobacter baumannii, read-out: MIC of evolved line, Acinetobacter baumannii ATCC 17978 (AB-SEN). How it is done:
as §1, §2, §3, §4, §5

For assay [3], the system named is E. coli BW25113: pUCacrAB. In words: AcrAB-TolC efflux overexpression screen, relative MIC. It is filed as cell-based, Escherichia coli. The conditions noted are these: pUCacrAB vs empty pUC118 control. The method, then:
Fig. 6 The impact of AcrAB-TolC activity on antibiotic susceptibility. E. coli strains with AcrAB-TolC depletion (BW25113-ΔacrB) and overexpression (BW25113: pUCacrAB) were treated with various antibiotics, and the level of resistance was determined as minimum inhibitory concentration (MIC) relative to a wild-type strain, presented on a logarithmic scale (log2). Each bar represents the mean resistance level (susceptibility, i.e., level of resistance < 0; and resistance, i.e., level of resistance > 0) to antibiotics induced by acrAB overexpression (blue bars; E. coli with a multicopy plasmid of the acrAB genes (pUCacrAB)) and acrB deletion (red bars; mutant E. coli with acrB gene deletion (ΔacrB)) compared to the wild-type. Data are presented as mean values of 3 biological replicates ± SD. […] Detailed information on antibiotic and bacterial strain abbreviations is provided in Supplementary Data 1. Source data are provided as a Source Data file. For information on mode of action groups, refer to Table 1.
For the efflux deficiency screen, the ΔacrB mutant of E. coli K12 BW25113[86] and its equivalent wild-type control strain with intact gene were utilized. In contrast, BW25113 carrying a multicopy acrAB plasmid (pUCacrAB)[87] and its control strain harboring an empty pUC118 plasmid were used to overexpress the acrAB efflux system. According to established protocols via P1 transduction, the suitable acrB deletion mutant (ΔacrB BW25113) was created, while the pUCacrAB plasmid was kindly provided by Kunihiko Nishino and Akihito Yamaguchi (Osaka University, Osaka, Japan). In a prior study, both strains were employed. Since the copy number of the plasmid carrying the efflux pump is controlled by native promoters, external induction is unnecessary.
Antibiotic susceptibilities of these strains were evaluated using a modified version of the standard broth dilution method. In 96-well microtiter plates containing fresh MHB medium, or supplemented MS medium in case of SCH79797, ten-step serial dilutions of an antibiotic from a stock solution were made (2 wells per antibiotic concentration per strain). The two wells contained only supplemented media without any antibiotics […]. Strains were incubated overnight at 37 °C with continuous agitation. Additionally, plasmid containing strains were grown in the presence of 100 µg/mL ampicillin. The culture was diluted to yield a cell suspension with 5 ×10^5 cells/mL and then inoculated into the wells of the microtiter plate. To determine the medium’s background OD value, the first column of the 96-well plate contained solely MHB without inoculum. Prior to the measurement, the plates were incubated at 37 °C with continuous shaking at 900 rpm with 3 mm throw. OD600 values were determined in a microplate reader after 18 hours of incubation (Biotek Synergy 2). The minimum inhibitory concentration (MIC) was determined as the lowest concentration of antibiotic at which the OD600 values were less than 0.05 after subtracting the background value. The log2 of the relative MIC was computed using the following equation:2 log2relativeMICpUCacrAB=MICpUCacrAB/MICpUC118 3 log2relativeMICΔacrB=MICΔacrB/MICwt

The mark [4] stands for this setting: Escherichia coli ATCC 25922 (EC-SEN), evolved line 1 versus ancestor.
Where [5] appears, read: Escherichia coli ATCC 25922 (EC-SEN), evolved line 2 versus ancestor.
The mark [6] stands for this setting: Escherichia coli ATCC 25922 (EC-SEN), evolved line 3 versus ancestor.
The mark [7] stands for this setting: Acinetobacter baumannii ATCC 17978 (AB-SEN), evolved line 1 versus ancestor.
The mark [8] stands for this setting: Acinetobacter baumannii ATCC 17978 (AB-SEN), evolved line 2 versus ancestor.
Where [9] appears, read: Acinetobacter baumannii ATCC 17978 (AB-SEN), evolved line 3 versus ancestor.

Regarding `CN(C)c1cc(CNCC(C)(C)C)c(O)c2c1C[C@H]1C[C@H]3[C@H](N(C)C)C(O)=C(C(N)=O)C(=O)[C@@]3(O)C(O)=C1C2=O` [Omadacycline], the “Relative MIC” value in assay [1] (setting [4]) was determined as 2; in assay [1] (setting [5]) it was 2; in assay [1] (setting [6]), 2; in assay [2] (setting [7]), 8; in assay [2] (setting [8]), 8; in assay [2] (setting [9]) it was 8. Moreover, the minimum inhibitory concentration (MIC) in assay [1] (evolved line 1), in assay [1] (evolved line 2), in assay [1] (evolved line 3), in assay [2] (evolved line 1), in assay [2] (evolved line 2) and in assay [2] (evolved line 3) was 4 mg/L in each case. Also, the “Relative MIC (log2)” value in assay [3] (replicate 1), in assay [3] (replicate 2) and in assay [3] (replicate 3) was 0.585 in each case.

Regarding `CC(C)c1ccc(Cn2ccc3c4c(N)nc(NC5CC5)nc4ccc32)cc1` [SCH79797], the MIC of evolved line stood at 8 mg/L in assay [1] (E. coli ATCC 25922 (EC-SEN), evolved line 1); 8 mg/L in assay [1] (E. coli ATCC 25922 (EC-SEN), evolved line 2); 8 mg/L in assay [1] (E. coli ATCC 25922 (EC-SEN), evolved line 3); 8 mg/L in assay [2] (Acinetobacter baumannii ATCC 17978 (AB-SEN), evolved line 1); 8 mg/L in assay [2] (Acinetobacter baumannii ATCC 17978 (AB-SEN), evolved line 2); 8 mg/L in assay [2] (Acinetobacter baumannii ATCC 17978 (AB-SEN), evolved line 3). The MIC of evolved line came out at 4 mg/L in assay [2] (Acinetobacter baumannii ATCC BAA 1605 (AB-MDR), evolved line 2); 2 mg/L in assay [2] (Acinetobacter baumannii ATCC BAA 1605 (AB-MDR), evolved line 1); 4 mg/L in assay [2] (Acinetobacter baumannii ATCC BAA 1605 (AB-MDR), evolved line 3). The “Relative MIC” value in assay [1] (E. coli ATCC 25922 (EC-SEN), evolved line 1, evolved vs ancestor) amounted to 2; in assay [1] (E. coli ATCC 25922 (EC-SEN), evolved line 2, evolved vs ancestor), 2; in assay [1] (E. coli ATCC 25922 (EC-SEN), evolved line 3, evolved vs ancestor) it was 2; in assay [1] (FoR assay, Escherichia coli ATCC 25922 (EC-SEN), evolved line 1), 2; in assay [1] (FoR assay, Escherichia coli ATCC 25922 (EC-SEN), evolved line 2), 2; in assay [1] (FoR assay, Escherichia coli ATCC 25922 (EC-SEN), evolved line 3), 2. Moreover, the “Relative MIC” value is recorded as 2 in assay [2] (setting [7]); 2 in assay [2] (setting [8]); 2 in assay [2] (setting [9]); 1 in assay [2] (Acinetobacter baumannii ATCC BAA 1605 (AB-MDR), evolved line 1 versus ancestor); 1 in assay [2] (Acinetobacter baumannii ATCC BAA 1605 (AB-MDR), evolved line 2 versus ancestor); 1 in assay [2] (Acinetobacter baumannii ATCC BAA 1605 (AB-MDR), evolved line 3 versus ancestor). For the same compound, the “Relative MIC” value turned out to be 2 in assay [2] (FoR assay, Acinetobacter baumannii ATCC 17978 (AB-SEN), evolved line 1); 2 in assay [2] (FoR assay, Acinetobacter baumannii ATCC 17978 (AB-SEN), evolved line 2); 2 in assay [2] (FoR assay, Acinetobacter baumannii ATCC 17978 (AB-SEN), evolved line 3); 1 in assay [2] (FoR assay, Acinetobacter baumannii ATCC BAA 1605 (AB-MDR), evolved line 1); 1 in assay [2] (FoR assay, Acinetobacter baumannii ATCC BAA 1605 (AB-MDR), evolved line 2); 1 in assay [2] (FoR assay, Acinetobacter baumannii ATCC BAA 1605 (AB-MDR), evolved line 3). Moreover, the “Relative MIC (log2)” value in assay [3] (replicate 1), in assay [3] (replicate 2) and in assay [3] (replicate 3) was 1 in each case.

As to `Nc1nc(-n2cc(C(=O)O)c(=O)c3cc(F)c(N4CC(O)C4)c(Cl)c32)c(F)cc1F` [Delafloxacin], the “Relative MIC” value was 1 in assay [1] (setting [4]); 1 in assay [1] (setting [5]); 1 in assay [1] (setting [6]); 8 in assay [2] (setting [7]); 4 in assay [2] (setting [8]); 8 in assay [2] (setting [9]). In addition, the values for the minimum inhibitory concentration (MIC) in assay [2] (evolved line 1), in assay [2] (evolved line 2) and in assay [2] (evolved line 3) were 0.5 mg/L, 0.25 mg/L and 0.5 mg/L, respectively. The “Relative MIC (log2)” value in assay [3] (replicate 1), in assay [3] (replicate 2) and in assay [3] (replicate 3) was 2 each time.

For `C[C@H]1c2cccc(O)c2C(=O)C2=C(O)[C@]3(O)C(=O)C(C(N)=O)=C(O)[C@@H](N(C)C)[C@@H]3[C@@H](O)[C@@H]21` [Doxycycline], the “Relative MIC” value in assay [1] (setting [4]) stood at 2; in assay [1] (setting [5]), 4; in assay [1] (setting [6]), 2; in assay [2] (setting [7]), 1; in assay [2] (setting [8]) it was 1; in assay [2] (setting [9]) it was 1. Moreover, the MIC was determined as 2 mg/L in assay [1] (evolved line 1), 4 mg/L in assay [1] (evolved line 2) and 2 mg/L in assay [1] (evolved line 3). The “Relative MIC (log2)” value in assay [3] (replicate 1), in assay [3] (replicate 2) and in assay [3] (replicate 3) was 0 each time.
